This is an account of results in patent publication US10933059B2, “Combination, application thereof and treatment method” (KANGPU BIOPHARMACEUTICALS, LTD., priority 2016, dated 2021).

Molecules are shown by their SMILES.

For the first experiment, the system named is Vcap cells. Put plainly: CTG cell proliferation assay on Vcap cells (compounds alone or in combination, 5 days). The class given is cell-based. Conditions: Homo sapiens, VCaP, 120 h, tested compound alone, 0.1 μM; read-out: Survival rate of Vcap cells. On the procedure: In vitro test of the inhibition effect of the compound in combination with androgen receptor pathway modulators on the prostate cancer cell proliferation.
Inhibition effect of the compounds such as B101, B102, B103, B104, B105, B106, C111 and the like, androgen receptor pathway modulators, hormone compounds, alone or in combination with each other on the prostate cancer cell proliferation were tested on Vcap cells (androgen receptor (+) prostate cancer cells) (ATCC, catalogue number CRL-2876). The specific experimental operation was as follows: 5×10^3 Vcap cells per well were inoculated into 96-well plates with transparent bottom and white wall (Corning, catalogue number CLS3903) containing the specific medium, and were cultured in a 37° C., 5% CO2 incubator for 24 hours. The tested compounds and the androgen receptor pathway modulators were prepared to a 150 mM stocking solution with DMSO (Sigma, catalogue number 276855), diluted with culture medium to the desired concentrations (the final concentration of DMSO is 0.2%), and then added to each well, 2 wells/concentration, followed by being incubated in a 37° C., 5% CO2 incubator for 5 days. The tested compounds were used alone or in combination with other androgen receptor pathway modulators and/or hormone compounds respectively. […] After that, 100 μl of CellTiter-Glo® cell viability assay reagent (Promega, catalogue number G7570) was added to each well and mixed well on a vibrator for 10 minutes to induce cell lysis. The 96-well plate was placed at room temperature for 10 minutes, so as to stabilize its luminescence signal. A white bottom membrane was pasted on the bottom of the plate and the plate was tested using EnSpire.
Take `Nc1cc(F)cc2c1CN([C@H]1CCC(=O)NC1=O)C2=O` [B102]: the viability at 0.1 µM stood at 84.7%.

On to `Nc1cc(F)cc2c1CN([C@@H]1CCC(=O)NC1=O)C2=O` [B103], for which the viability at 0.1 µM turned out to be 86.3%.

As for `[2H]C1(N2Cc3c(N)cc(F)cc3C2=O)CCC(=O)NC1=O` (stereo not drawn) [B104], the viability at 0.1 µM is 84.4%.

The same experiment, now with this note: Homo sapiens, VCaP, 120 h, tested compound alone, 1 μM; read-out: Survival rate of Vcap cells.
Consider `Nc1cc(F)cc2c1CN([C@H]1CCC(=O)NC1=O)C2=O` [B102], for which the viability at 1 µM stood at 80.9%.

`Nc1cc(F)cc2c1CN([C@@H]1CCC(=O)NC1=O)C2=O` [B103]: the viability at 1 µM is 84.1%.

As for `[2H]C1(N2Cc3c(N)cc(F)cc3C2=O)CCC(=O)NC1=O` (stereo not drawn) [B104], the viability at 1 µM came out at 77.4%.

The same experiment, now with this note: Homo sapiens, VCaP, 120 h, tested compound alone, 10 μM; read-out: Survival rate of Vcap cells.
Take `Nc1cc(F)cc2c1CN([C@H]1CCC(=O)NC1=O)C2=O` [B102]: the viability at 10 µM worked out at 78.4%.

As to `Nc1cc(F)cc2c1CN([C@@H]1CCC(=O)NC1=O)C2=O` [B103], the viability at 10 µM turned out to be 85.5%.

Consider `[2H]C1(N2Cc3c(N)cc(F)cc3C2=O)CCC(=O)NC1=O` (stereo not drawn) [B104], for which the viability at 10 µM is 74%.

The same experiment, now with this note: tested compound 0.1 μM in combination with 1 μM ARN-509.
For `Nc1cc(F)cc2c1CN([C@H]1CCC(=O)NC1=O)C2=O` [B102], the “Survival rate of Vcap cells” value was 47.2%.

For `Nc1cc(F)cc2c1CN([C@@H]1CCC(=O)NC1=O)C2=O` [B103], the “Survival rate of Vcap cells” value came to 48.8%.

`[2H]C1(N2Cc3c(N)cc(F)cc3C2=O)CCC(=O)NC1=O` (stereo not drawn) [B104]: the “Survival rate of Vcap cells” value worked out at 45.7%.

The experiment is the same for the next values; noted with them: tested compound 0.1 μM in combination with 1 μM Enzalutamide.
As for `Nc1cc(F)cc2c1CN([C@H]1CCC(=O)NC1=O)C2=O` [B102], the “Survival rate of Vcap cells” value was 46.3%.

Regarding `Nc1cc(F)cc2c1CN([C@@H]1CCC(=O)NC1=O)C2=O` [B103], the “Survival rate of Vcap cells” value is 50.2%.

With `[2H]C1(N2Cc3c(N)cc(F)cc3C2=O)CCC(=O)NC1=O` (stereo not drawn) [B104], the “Survival rate of Vcap cells” value is given as 47.1%.

The same experiment, now with this note: tested compound 1 μM in combination with 1 μM ARN-509.
As for `Nc1cc(F)cc2c1CN([C@H]1CCC(=O)NC1=O)C2=O` [B102], the “Survival rate of Vcap cells” value worked out at 40.2%.

In the case of `Nc1cc(F)cc2c1CN([C@@H]1CCC(=O)NC1=O)C2=O` [B103], the “Survival rate of Vcap cells” value is reported as 41.7%.

`[2H]C1(N2Cc3c(N)cc(F)cc3C2=O)CCC(=O)NC1=O` (stereo not drawn) [B104]: the “Survival rate of Vcap cells” value stood at 40.5%.

Still in this experiment, the particulars now being: tested compound 1 μM in combination with 1 μM Enzalutamide.
For `Nc1cc(F)cc2c1CN([C@H]1CCC(=O)NC1=O)C2=O` [B102], the “Survival rate of Vcap cells” value is on record as 41.1%.

Turning to `Nc1cc(F)cc2c1CN([C@@H]1CCC(=O)NC1=O)C2=O` [B103], the “Survival rate of Vcap cells” value came to 42.7%.

`[2H]C1(N2Cc3c(N)cc(F)cc3C2=O)CCC(=O)NC1=O` (stereo not drawn) [B104]: the “Survival rate of Vcap cells” value amounted to 41.2%.

The experiment is the same for the next values; noted with them: tested compound 10 μM in combination with 1 μM ARN-509.
For the compound `Nc1cc(F)cc2c1CN([C@H]1CCC(=O)NC1=O)C2=O` [B102], the “Survival rate of Vcap cells” value turned out to be 38.3%.

For the compound `Nc1cc(F)cc2c1CN([C@@H]1CCC(=O)NC1=O)C2=O` [B103], the “Survival rate of Vcap cells” value came to 38.3%.

For `[2H]C1(N2Cc3c(N)cc(F)cc3C2=O)CCC(=O)NC1=O` (stereo not drawn) [B104], the “Survival rate of Vcap cells” value stood at 37.8%.

The same experiment, now with this note: tested compound 10 μM in combination with 1 μM Enzalutamide.
For the compound `Nc1cc(F)cc2c1CN([C@H]1CCC(=O)NC1=O)C2=O` [B102], the “Survival rate of Vcap cells” value turned out to be 40.1%.

As for `Nc1cc(F)cc2c1CN([C@@H]1CCC(=O)NC1=O)C2=O` [B103], the “Survival rate of Vcap cells” value was found to be 42.9%.

Take `[2H]C1(N2Cc3c(N)cc(F)cc3C2=O)CCC(=O)NC1=O` (stereo not drawn) [B104]: the “Survival rate of Vcap cells” value is given as 38.8%.

Staying with this experiment, now noted: tested compound alone, 1 μM.
Take `Nc1cc(F)cc2c1CN([C@H]1CCC(=O)NC1=O)C2=O` [B102]: the “Survival rate of Vcap cells” value is reported as 80.9%.

Take `Nc1cc(F)cc2c1CN([C@@H]1CCC(=O)NC1=O)C2=O` [B103]: the “Survival rate of Vcap cells” value is given as 84.1%.

Turning to `[2H]C1(N2Cc3c(N)cc(F)cc3C2=O)CCC(=O)NC1=O` (stereo not drawn) [B104], the “Survival rate of Vcap cells” value is 77.4%.
